Measured values published in ChEMBL document CHEMBL2086297, “Reduced pulmonary surfactant interaction of daptomycin analogs via tryptophan replacement with alternative amino acids” (2012).
≈ marks a conversion by molar mass, not a printed value.

Experiments:
Type in all cases: functional
Staphylococcus aureus [1] = experiment: Antibacterial activity against methicillin-susceptible Staphylococcus aureus ATCC 29213 by broth microdilution method in presence of 4% human serum albumin
Streptococcus pneumoniae = experiment: Antibacterial activity against Streptococcus pneumoniae
Staphylococcus aureus [2] = experiment: Antibacterial activity against methicillin-susceptible Staphylococcus aureus ATCC 29213 grown on calcium supplemented Mueller-Hinton broth by broth microdilution method
Staphylococcus aureus [3] = experiment: Antibacterial activity against methicillin-susceptible Staphylococcus aureus ATCC 29213 by broth microdilution method in presence of 5% pulmonary surfactant; conditions: ATCC 29213, Pulmonary surfactant
Staphylococcus aureus [4] = experiment: Antibacterial activity against methicillin-susceptible Staphylococcus aureus ATCC 29213 by broth microdilution method in presence of 1% pulmonary surfactant; conditions: ATCC 29213, Pulmonary surfactant

| Compound | MIC (Staphylococcus aureus [1]) | MIC90 (Streptococcus pneumoniae) | MIC (Staphylococcus aureus [2]) | MIC (Staphylococcus aureus [3]) | MIC (Staphylococcus aureus [4]) |
| --- | --- | --- | --- | --- | --- |
| CCCCCCCCCC(=O)N[C@@H](Cc1c[nH]c2ccccc12)C(=O)N[C@H](CC(N)=O)C(=O)N[C@@H](CC(=O)O)C(=O)N[C@@H]1C(=O)NCC(=O)N[C@@H](CCCN)C(=O)N[C@@H](CC(=O)O)C(=O)N[C@H](C)C(=O)N[C@@H](CC(=O)O)C(=O)NCC(=O)N[C@H](CO)C(=O)N[C@@H]([C@H](C)CC(=O)O)C(=O)N[C@@H](CC(=O)c2ccccc2N)C(=O)O[C@@H]1C | 2 µg/mL | 0.06 µg/mL (≈ 0.037 µM) | 1 µg/mL (≈ 0.617 µM) | > 32 µg/mL | 16 µg/mL |
| CO/N=C(\C(=O)N[C@@H]1C(=O)N2C(C(=O)O)=C(CSc3nc(=O)c(O)nn3C)CS[C@H]12)c1csc(N)n1 [CEFTRIAXONE] | 8 µg/mL | – | 2 µg/mL (≈ 3.61 µM) | 2 µg/mL | 2 µg/mL |
| CCCCCCCCCC(=O)N[C@@H](Cc1ccccc1OC)C(=O)N[C@@H](CC(N)=O)C(=O)N[C@@H](CC(=O)O)C(=O)N[C@@H]1C(=O)NCC(=O)N[C@@H](CCCN)C(=O)N[C@@H](CC(=O)O)C(=O)N[C@H](C)C(=O)N[C@@H](CC(=O)O)C(=O)NCC(=O)N[C@H](CO)C(=O)N[C@@H]([C@@H](C)CC(=O)O)C(=O)N[C@@H](CC(=O)c2ccccc2N)C(=O)O[C@@H]1C | 8 µg/mL | – | 2 µg/mL (≈ 1.24 µM) | 4 µg/mL | 2 µg/mL |
| CCCCCCCCCC(=O)N[C@@H](CCc1ccc(OC)cc1)C(=O)N[C@@H](CC(N)=O)C(=O)N[C@@H](CC(=O)O)C(=O)N[C@@H]1C(=O)NCC(=O)N[C@@H](CCCN)C(=O)N[C@@H](CC(=O)O)C(=O)N[C@H](C)C(=O)N[C@@H](CC(=O)O)C(=O)NCC(=O)N[C@H](CO)C(=O)N[C@@H]([C@@H](C)CC(=O)O)C(=O)N[C@@H](CC(=O)c2ccccc2N)C(=O)O[C@@H]1C | 8 µg/mL | – | 2 µg/mL (≈ 1.23 µM) | 32 µg/mL | 8 µg/mL |
